{"source": "paper PMC7385036", "about": "“An allosteric pocket for inhibition of bacterial Enzyme I identified by NMR-based fragment screening” (Journal of Structural Biology: X, 2020)", "key": {"EIC domain of EI": {"molecular_target": "T1, EIC domain of EI (Escherichia coli, UniProt P08839)", "T1 construct": "made in house", "experiment": "CSP-based NMR titration experiments (equilibrium dissociation constant)", "format": "binding, E. coli", "from_the_text": "The affinity of the newly discovered EI ligands was investigated by acquiring CSP-based, NMR titration experiments on ^15N-labeled EIN or EIC at increasing concentration of small molecule ([Fielding, 2007]). The data were fit using a standard equilibrium dissociation equation ([Granot, 1983]) to obtain the equilibrium dissociation constant (KD) per each analyzed complex (Fig. 2d). This analysis identified six small molecules that bind the EIC domain of EI with low mM affinity (Fig. 2e).\nNMR titration experiments were measured at 37 °C in 20 mM Tris (pH 7.4), 100 mM NaCl, 4 mM MgCl2, 2 mM DTT, and 5% D2O. The protein concentration was 400 µM and the concentration of small molecule was varied between 0 and 8 mM. Spectra were processed using NMRPipe ([Delaglio et al., 1995]) and analyzed using the program SPARKY (http://www.cgl.ucsf.edu/home/sparky). Assignment of the ^1H-^15N cross-peaks for the EIC-small molecule complexes was performed by titration experiments, following the change in ^1H-^15N cross-peak positions as a function of added small molecule. Weighted combined ^1H/^15N chemical shift perturbations (ΔH/N) resulting from the addition of increasing concentrations of small molecule were calculated using the following equation ([Mulder et al., 1999]):(1) ΔH/N=ΔδHWH^2+ΔδNWN^2 where WH (=1) and WN (=0.154) are weighting factor for the ^1H and ^15N amide shifts, respectively. ΔδH and ΔδN are the ^1H and ^15N chemical shift differences in ppm, respectively, between free and bound states. The equilibrium dissociation constants (KD) for the EIC-inhibitor complexes were obtained by fitting the changes in ΔH/N with increasing concentration of small molecule using the equation ([Granot, 1983]):(2) ΔH/N=Δ0P+L+KD-P+L-KD^2-4PL/2P where Δ0 is the weighted combined ^1H/^15N chemical shift at saturation, and P and L are the protein and small molecule concentrations, respectively."}, "full-length EI [1]": {"molecular_target": "T2, full-length EI (Escherichia coli, UniProt P08839)", "experiment": "Enzyme kinetic assay of phosphoryl transfer from PEP to HPr by 1H-15N SOFAST NMR", "format": "biochemical, E. coli", "design": "phosphoryl transfer from PEP to HPr catalyzed by full-length EI; made in house", "details": "0.0, 1.5 and 6.0 mM compound, 25 °C, pH 7.4", "from_the_text": "In such graphs, the y and x intercepts are equivalent to the inverse of the maximum velocity (1/Vmax) and the negative inverse of the Michaelis constant (−1/Km), respectively.\nVmax,0 (the value of Vmax in the absence of inhibitor) was optimized to maximize the agreement between experimental and simulated data (Fig. 3c).\nEnzyme kinetic assay we run by measuring the rate of phosphoryl transfer from PEP to HPr catalyzed by full-length EI by using ^1H-^15N SOFAST NMR spectra as described previously ([Nguyen et al., 2018]). Reaction were run at 25 °C in 20 mM Tris (pH 7.4), 100 mM NaCl, 4 mM MgCl2, 2 mM DTT, and 5% D2O. The assay was performed in triplicate. The enzyme kinetic data measured at different concentration of inhibitor were fit using a completive or mixed inhibition model:(3) Competitiveinhibition-v0=Vmax,0PEP/Km,01+I/KI,S+PEP (4) Mixedinhibition-v0=Vmax,0PEP/Km,01+I/KI,S+PEP1+I/KI,I where v0 is the initial velocity of the enzymatic reaction, [PEP] and [I] are the concentration of substrate and inhibitor, respectively, KI,s is the equilibrium dissociation constant for the enzyme-inhibitor complex, KI,I is the dissociation constant for the interaction between the inhibitor and the enzyme-PEP complex, and Km,0 and Vmax,0 are the Michaelis constant and maximum velocity in the absence of inhibitors, respectively. The seven measured datasets (in the absence of inhibitor, and in the presence of two concentrations of each inhibitor) were fit globally."}, "full-length EI [2]": {"molecular_target": "T2, full-length EI", "details": "read-out: Km,0 (Km in the absence of inhibitor); PEP as substrate of EI; kept fixed to its literature value, no reference given; cited from earlier work"}, "[3]": {"details": "15N-labeled EIC 400 µM, small molecule 0-8 mM, 37 °C, pH 7.4, read-out: KD"}}, "note": "Read-outs that look alike come from different tables or passages of the source.", "data": [{"smiles": "Cc1nn(Cc2ccc(F)cc2)c(C)c1N", "note": "[compound 3]", "values": [{"measurement": "Kd", "setting": "EIC domain of EI; [3]", "value": 3.2, "unit": "mM"}, {"measurement": "Kd", "setting": "EIC domain of EI; EIC, residues in the allosteric binding pocket fitted separately, read-out: KD, CSP titration data fitted for the residues in the allosteric binding pocket", "value": "3.2 ± 0.2", "unit": "mM"}, {"measurement": "Kd", "setting": "EIC domain of EI; EIC, residues in the β3α3 loop fitted separately, read-out: KD, CSP titration data fitted for the residues in the β3α3 loop", "value": "3.5 ± 0.3", "unit": "mM"}, {"measurement": "Type of inhibition of EI (Lineweaver-Burk analysis)", "setting": "full-length EI [1]", "value": "mixed inhibitor"}]}, {"smiles": "NCc1ccc(Br)s1", "note": "[compound 4]", "values": [{"measurement": "Kd", "setting": "EIC domain of EI; [3]", "value": 2.9, "unit": "mM"}]}, {"smiles": "CC(CN)Nc1ccc([N+](=O)[O-])cc1", "note": "(stereo not drawn) [compound 6]", "values": [{"measurement": "Kd", "setting": "EIC domain of EI; [3]", "value": 4.1, "unit": "mM"}]}, {"smiles": "NCc1ccc(-c2ccc(F)cc2)o1", "note": "[compound 1]", "values": [{"measurement": "Kd", "setting": "EIC domain of EI; [3]", "value": 2.5, "unit": "mM"}, {"measurement": "Type of inhibition of EI (Lineweaver-Burk analysis)", "setting": "full-length EI [1]", "value": "competitive inhibitors"}]}, {"smiles": "C=C(OP(=O)(O)O)C(=O)O", "note": "[PEP, phosphoenolpyruvate]", "values": [{"measurement": "Km", "setting": "full-length EI [2]", "value": 350, "unit": "µM"}]}, {"smiles": "CC(C)Oc1ccc(Cl)cc1CN", "note": "[compound 5]", "values": [{"measurement": "Kd", "setting": "EIC domain of EI; [3]", "value": 4.3, "unit": "mM"}]}, {"smiles": "CNCc1[nH]c2ccccc2c1C", "note": "[compound 2]", "values": [{"measurement": "Kd", "setting": "EIC domain of EI; [3]", "value": 2.6, "unit": "mM"}, {"measurement": "Type of inhibition of EI (Lineweaver-Burk analysis)", "setting": "full-length EI [1]", "value": "competitive inhibitors"}]}]}
